Experimental data from patent US20100196355A1, “Immunophilin Ligands and Methods for Modulating Immunophilin and Calcium Channel Activity” (Wyeth, priority 2007, published 2010).
Entries after “also recorded” stand apart in the source; their conditions may differ.

Experiments:
FKBP52 = target: T1, FKBP52 (Mus musculus, UniProt P30416); experiment: Affinity precipitation from F-11 cell lysate, FT-ICR-MS and Western analysis; type: binding, rat and mouse hybrid
T1 construct: endogenous in cells; host or cells: F-11 cells (rat DRG x mouse neuroblastoma hybrid), lysate
Experimental: (§1) Briefly, the amino group of amino-phenyl-butyric acid (1200 mg) was protected with an allyloxycarbonyl group by treating with diallyldicarbonate ([…]) in dioxane:water (3:1; 50 ml) for 3 h at room temperature.
(§2) The reaction was quenched with methanol and the ester product was purified by HPLC with a purity of 99% and characterized by MS and NMR. After removing the allyloxycarbonyl group of the ester product (40 mg) by treatment with Pd(PPh3)4 (2 mg) and dimedone (7 mg) in THF (1.2 ml), the amino group of the product was linked to Affigel-10 matrix (4 ml) in the presence of 2% pyridine in THF.
(§3) F11 cells were grown in culture medium, DMEM supplemented with 10% FBS and 1% pen/Strep, in 75 cm^2 vented flasks in 37° C. incubator with 5% CO2. Cells were harvested at 80% confluence and washed with PBS buffer. Lysis buffer (6 ml; 50 mM Tris, pH 7.4, 250 mM NaCl, 5 mM EDTA, 50 mM NaF, 1 mM Na3VO4, 1% Nonidet P40 (NP40), 0.1% mercaptoethanol and 2% protease inhibitor cocktails) was added to 10^9 cells. Cells were broken by forcing them through a 26-gauge needle, and S-100 supernatant was collected after 15 min centrifugation at 4° C. […] After washes with lysis buffer (2 ml) and then PBS (2 ml), the beads were analyzed on 4-20% SDS-PAGE gel. […] The protein bands (FIG. 3) were cut out and digested with trypsin (0.3 ng) in digestion buffer (30 μl; 0.2% NH4HCO3) at 30° C. overnight. The resulting peptides were purified on C18-resin and submitted for FT-ICR-MS analysis. The FT-ICR-MS data was manually edited and used to search protein databases. The results are shown in FIG. 4 and have the following scores. FK506-binding protein (FKBP52) (P30416, score: 94, expect: 9.6e-05); MS Data of the 59 kDa band: 2753.35; 1710.94; 2215.13; 2363.15; 1298.71; 1215.59; 1000.51; 1000.46; 1790.93; 1381.70; 2746.36; 1316.71; and 1171.60. Voltage dependent L-type calcium channel β1 subunit (Q8R3Z5-03-00-00, score: 133, expect: 1e-09); MS Data of the 52 kDa band: 651.38; 663.39; 779.54; 853.55; 1014.50; 1347.75; 1217.78; 1346.67; 1297.75; 1231.77; 877.52; 853.47; 919.48; 1014.56; 1041.63; 1217.74; 1231.74; 1296.84; 869.58 (major).
(§4) In another experiment, F11 cells were grown in culture medium, DMEM supplemented with 10% FBS and 1% Pen/Strep, in 75 cm^2 vented flasks in a 37° C. incubator with 5% CO2. Cells were harvested at 80% confluence and washed with PBS buffer. To 3×10^8 cells, lysis buffer (2 ml; 50 mM Tris, pH 7.4, 250 mM NaCl, 5 mM EDTA, 50 mM NaF, 1 mM Na3VO4, 1% Nonidet P40, 0.1% mercaptoethanol and 2% protease inhibitor cocktails) was added, and its S-100 supernatant was collected after 15 min centrifugation at 4° C. […] After wash with lysis buffer (2 ml) and then PBS buffer (2 ml), beads were analyzed by SDS-PAGE. […]

[1] = target: T2, β1 subunit (CACNB1) of the voltage gated L-type calcium channel (Mus musculus, UniProt Q8R3Z5); experiment: as above; type: binding, rat and mouse hybrid
T2 construct: endogenous in cells; host or cells: F-11 cells (rat DRG x mouse neuroblastoma hybrid), lysate
Experimental: as §1, §2, §3, §4

T2 sequence (Q8R3Z5 1-479 isoform Q8R3Z5-3): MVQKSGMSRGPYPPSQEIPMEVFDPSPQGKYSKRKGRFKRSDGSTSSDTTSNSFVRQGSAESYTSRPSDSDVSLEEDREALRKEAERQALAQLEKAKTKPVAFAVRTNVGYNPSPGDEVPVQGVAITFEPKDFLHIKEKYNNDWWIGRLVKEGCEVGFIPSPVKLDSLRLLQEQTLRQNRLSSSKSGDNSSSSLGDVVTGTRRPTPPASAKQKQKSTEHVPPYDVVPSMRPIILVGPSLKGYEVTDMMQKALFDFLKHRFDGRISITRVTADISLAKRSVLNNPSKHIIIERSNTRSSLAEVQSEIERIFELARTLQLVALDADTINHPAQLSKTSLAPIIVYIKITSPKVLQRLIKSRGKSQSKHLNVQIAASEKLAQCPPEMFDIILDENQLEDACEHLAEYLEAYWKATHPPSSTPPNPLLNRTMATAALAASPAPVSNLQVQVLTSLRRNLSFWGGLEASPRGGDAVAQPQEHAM
T1 sequence (P30416 whole entry): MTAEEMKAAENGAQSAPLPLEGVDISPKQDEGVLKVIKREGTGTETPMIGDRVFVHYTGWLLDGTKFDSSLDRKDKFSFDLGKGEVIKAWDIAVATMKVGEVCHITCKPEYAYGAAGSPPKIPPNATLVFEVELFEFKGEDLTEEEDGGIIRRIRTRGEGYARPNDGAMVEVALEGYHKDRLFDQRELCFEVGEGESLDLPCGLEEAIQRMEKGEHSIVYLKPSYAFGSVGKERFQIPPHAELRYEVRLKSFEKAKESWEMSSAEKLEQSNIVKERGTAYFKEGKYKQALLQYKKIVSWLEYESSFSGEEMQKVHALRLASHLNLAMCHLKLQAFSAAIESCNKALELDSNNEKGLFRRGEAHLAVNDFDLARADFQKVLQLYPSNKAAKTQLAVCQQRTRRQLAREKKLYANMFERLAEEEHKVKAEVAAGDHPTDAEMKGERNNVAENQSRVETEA

SMILES	FKBP52 in affinity bead fraction (FKBP52)	L-type calcium channel β1 subunit (CACNB1) in affinity bead fraction [1]
CO[C@H]1C[C@@H]2CC[C@@H](C)[C@@](O)(O2)C(=O)C(=O)N2CCCCC2C(=O)O[C@H]([C@H](C)C[C@@H]2CC[C@@H](O)[C@H](OC)C2)CC(=O)[C@H](C)/C=C(\C)[C@@H](O)[C@@H](OC)C(=O)[C@H](C)C[C@H](C)C2CC[C@H](/C=C/1C)ON2c1ccccc1 (stereo partly shown) [Rapamycin analogue II, 9,27-dihydroxy-3-{2-[4-hydroxy-3-methoxycyclohexyl]-1-methylethyl}-10,21-dimethoxy-6,8,12,14,20,26-hexamethyl-37-phenyl-4,9,10,12,13,14,15,16,17,18,21,22,23,24,25,26,27,32,33,34,34a-henicosahydro-3H-23,27-epoxy-18,15-(epoxyimino)pyrido[2,1-c][1,4]oxazacyclohentriacontine-1,5,11,28,29(6H, 31H)-pentone]	major targets	major targets
CO[C@H]1C[C@@H]2CC[C@@H](C)[C@@](O)(O2)C(=O)C(=O)N2CCCCC2C(=O)O[C@H]([C@H](C)C[C@@H]2CC[C@@H](O)[C@H](OC)C2)CC(=O)[C@H](C)/C=C(\C)[C@@H](O)[C@@H](OC)C(=O)[C@H](C)C[C@H](C)C2C=C[C@H](/C=C/1C)ON2c1ccccc1 (stereo partly shown) [Rapamycin analogue I, 9,27-dihydroxy-3-{2-[4-hydroxy-3-methoxycyclohexyl]-1-methylethyl}-10,21-dimethoxy-6,8,12,14,20,26-hexamethyl-37-phenyl-4,9,10,12,13,14,15,18,21,22,23,24,25,26,27,32,33,34,34a-nonadecahydro-3H-23,27-epoxy-18,15-(epoxyimino)pyrido[2,1-c][1,4]oxazacyclohentriacontine-1,5,11,28,29(6H, 31H)-pentone]	major targets; also recorded: detected	major targets; also recorded: detected
